Tested on: HCV replicon cells
Assay: Cell-based HCV replicon assay (replicon RNA level by real time PCR, Taqman)
Settings: Hepatitis C virus, 72 h, HCV replicon cells, harvested day 3, replicon RNA by real time PCR; reported as range class; read-out: EC90 (μM) range
Method: Assays Cell-Based HCV Replicon Assay
To measure cell-based anti-HCV activity of the compounds of the present invention, replicon cells were seeded at 5000 cells/well in 96-well collagen I-coated Nunc plates in the presence of the compound of the invention. Various concentrations of a compound of the invention, typically in 10 serial 2-fold dilutions, were added to the assay mixture, the starting concentration of the compound ranging from 25 μM to 1 μM. The final concentration of DMSO was 0.5%, fetal bovine serum was 10%, in the assay media. Cells were harvested on day 3 by the addition of 1× cell lysis buffer (Ambion cat #8721). The replicon RNA level was measured using real time PCR (Taqman assay). The amplicon was located in 5B. The PCR primers were: 5B.2F, ATGGACAGGCGCCCTGA (SEQ. ID NO. 1); 5B.2R, […] (SEQ. ID NO. 2); the probe sequence was FAM-labeled CACGCCATGCGCTGCGG (SEQ. ID NO. 3). GAPDH RNA was used as endogenous control and was amplified in the same reaction as NS5B (multiplex PCR) using primers and VIC-labeled probe recommended by the manufacturer (PE Applied Biosystem). The real-time RT-PCR reactions were run on ABI PRISM 7900HT Sequence Detection System using the following program: 48′C for 30 min, 95° C. for 10 min, 40 cycles of 95° C. for 15 sec, 60° C. for 1 min. The ΔCT values (CT5B-CTGAPDH) were plotted against the concentration of test compound and fitted to the sigmoid dose-response model using GraphPad PRISM software. EC50 was defined as the concentration of inhibitor necessary to achieve ΔCT=1 over the projected baseline; EC90 the concentration necessary to achieve ΔCT=3.2 over the baseline. Alternatively, to quantitate the absolute amount of replicon RNA, a standard curve was established by including serially diluted T7 transcripts of replicon RNA in the Taqman assay. All Taqman reagents were from PE Applied Biosystems. Such an assay procedure was described in detail in e.g. Malcolm et al., Antimicrobial Agents and Chemotherapy 50: 1013-1020 (2006).
HCV Replicon assay data for compounds of the invention that were tested was obtained using the above method. Calculated EC90 values are reported for each compound in Table I as a falling within the following ranges: […]

SMILES | EC90
Nc1nc(Cl)c(-c2ccc3c(c2)OCO3)c(N[C@@H]2C[C@H](CO)[C@@H](O)[C@H]2O)n1 [Example 151] | > 5 µM
Nc1nc(Cl)c(-c2ccco2)c(N[C@@H]2C[C@H](CO)[C@@H](O)[C@H]2O)n1 [Example 152] | > 5 µM
Nc1nc(Cl)c(-c2cccs2)c(N[C@@H]2C[C@H](CO)[C@@H](O)[C@H]2O)n1 [Example 153] | > 5 µM
CC(=O)c1ccc(-c2c(Cl)nc(N)nc2N[C@@H]2C[C@H](CO)[C@@H](O)[C@H]2O)s1 [Example 154] | > 5 µM
Nc1nc(Cl)c(-c2ccc(C=O)s2)c(N[C@@H]2C[C@H](CO)[C@@H](O)[C@H]2O)n1 [Example 155] | > 5 µM
Nc1nc(Cl)c(-c2ccc(C=O)o2)c(N[C@@H]2C[C@H](CO)[C@@H](O)[C@H]2O)n1 [Example 156] | > 5 µM
Nc1nc(Cl)c(-c2ccccn2)c(N[C@@H]2C[C@H](CO)[C@@H](O)[C@H]2O)n1 [Example 157] | > 5 µM
Nc1nc(Cl)c(-c2cccc(N3CCOCC3)n2)c(N[C@@H]2C[C@H](CO)[C@@H](O)[C@H]2O)n1 [Example 158] | > 5 µM
Nc1nc(Cl)c(-c2cnccn2)c(N[C@@H]2C[C@H](CO)[C@@H](O)[C@H]2O)n1 [Example 159] | > 5 µM
Nc1nc(N[C@@H]2C[C@H](CO)[C@@H](O)[C@H]2O)c(-c2ncccn2)c(-c2ncccn2)n1 [Example 160] | > 5 µM
Nc1nc(Cl)c(-c2cscn2)c(N[C@@H]2C[C@H](CO)[C@@H](O)[C@H]2O)n1 [Example 161] | > 5 µM
Nc1nc(N[C@@H]2C[C@H](CO)[C@@H](O)[C@H]2O)c(-c2ccccn2)c(-c2ccccn2)n1 [Example 162] | > 5 µM
Nc1nc(Cl)c(-c2cncs2)c(N[C@@H]2C[C@H](CO)[C@@H](O)[C@H]2O)n1 [Example 163] | > 5 µM
Nc1nc(Cl)c(-c2cc3cc(F)ccc3o2)c(N[C@@H]2C[C@H](CO)[C@@H](O)[C@H]2O)n1 [Example 164] | > 5 µM
Nc1nc(Cl)c(-c2cc3cc(Cl)ccc3o2)c(N[C@@H]2C[C@H](CO)[C@@H](O)[C@H]2O)n1 [Example 165] | > 5 µM
CN(C)C(=O)c1ccc2oc(-c3c(Cl)nc(N)nc3N[C@@H]3C[C@H](CO)[C@@H](O)[C@H]3O)cc2c1 [Example 168] | > 5 µM
Nc1nc(Cl)c(-c2cc3cc(F)c(F)cc3o2)c(N[C@@H]2C[C@H](CO)[C@@H](O)[C@H]2O)n1 [Example 169] | > 5 µM
Nc1nc(Cl)c(-c2cc3cc(F)cc(F)c3o2)c(N[C@@H]2C[C@H](CO)[C@@H](O)[C@H]2O)n1 [Example 170] | > 5 µM
N#Cc1ccc2oc(-c3c(Cl)nc(N)nc3N[C@@H]3C[C@H](CO)[C@@H](O)[C@H]3O)cc2c1 [Example 171] | > 5 µM
CNC(=O)c1ccc2oc(-c3c(Cl)nc(N)nc3N[C@@H]3C[C@H](CO)[C@@H](O)[C@H]3O)cc2c1 [Example 172] | > 5 µM
NC(=O)c1ccc2oc(-c3c(Cl)nc(N)nc3N[C@@H]3C[C@H](CO)[C@@H](O)[C@H]3O)cc2c1 [Example 173] | > 5 µM
Nc1nc(Cl)c(-c2cc3cc(-c4ccccc4)ccc3o2)c(N[C@@H]2C[C@H](CO)[C@@H](O)[C@H]2O)n1 [Example 174] | > 5 µM
Nc1nc(Cl)c(-c2cc3cc(C(=O)N4CCOCC4)ccc3o2)c(N[C@@H]2C[C@H](CO)[C@@H](O)[C@H]2O)n1 [Example 175] | > 5 µM
CN(C)C(=O)c1ccc2cc(-c3c(Cl)nc(N)nc3N[C@@H]3C[C@H](CO)[C@@H](O)[C@H]3O)oc2c1 [Example 176] | > 5 µM
CNC(=O)c1ccc2cc(-c3c(Cl)nc(N)nc3N[C@@H]3C[C@H](CO)[C@@H](O)[C@H]3O)oc2c1 [Example 177] | > 5 µM
NC(=O)c1ccc2cc(-c3c(Cl)nc(N)nc3N[C@@H]3C[C@H](CO)[C@@H](O)[C@H]3O)oc2c1 [Example 178] | > 5 µM
Nc1nc(Cl)c(-c2cc3ccc(C(=O)N4CCOCC4)cc3o2)c(N[C@@H]2C[C@H](CO)[C@@H](O)[C@H]2O)n1 [Example 179] | > 5 µM

SMILES | EC90
Nc1nc(Cl)c(-c2cc3cc(-c4nc5ccccc5o4)ccc3o2)c(N[C@@H]2C[C@H](CO)[C@@H](O)[C@H]2O)n1 [Example 180] | > 5 µM
COc1ccc2nc(-c3c(Cl)nc(N)nc3N[C@@H]3C[C@H](CO)[C@@H](O)[C@H]3O)sc2c1 [Example 181] | < 0.5 µM
CCOc1ccc2nc(-c3c(Cl)nc(N)nc3N[C@@H]3C[C@H](CO)[C@@H](O)[C@H]3O)sc2c1 [Example 182] | < 0.5 µM
Nc1nc(Cl)c(-c2nc3c(Cl)cccc3s2)c(N[C@@H]2C[C@H](CO)[C@@H](O)[C@H]2O)n1 [Example 183] | 0.5 to 5 µM
CC1(C)O[C@@H]2[C@@H](CO)C[C@@H](Nc3nc(N)nc(Cl)c3-c3nc4ccccc4s3)[C@@H]2O1 [Example 184] | < 0.5 µM
CC1(C)O[C@@H]2[C@@H](CO)C[C@@H](Nc3nc(N)nc(-c4nc5c(F)cc(F)cc5s4)c3-c3nc4c(F)cc(F)cc4s3)[C@@H]2O1 [Example 185] | > 5 µM
CC1(C)O[C@@H]2[C@@H](CO)C[C@@H](Nc3nc(N)nc(Cl)c3-c3nc4c(F)cc(F)cc4s3)[C@@H]2O1 [Example 186] | 0.5 to 5 µM
Nc1nc(Cl)c(-c2nc3ccc(Cl)cc3s2)c(N[C@@H]2C[C@H](CO)[C@@H](O)[C@H]2O)n1 [Example 188] | > 5 µM
Nc1nc(Cl)c(-c2nc3c(F)cc(F)cc3s2)c(N[C@@H]2C[C@H](CO)[C@@H](O)[C@H]2O)n1 [Example 189] | 0.5 to 5 µM
Cc1ccc2nc(-c3c(Cl)nc(N)nc3N[C@@H]3C[C@H](CO)[C@H]4OC(C)(C)O[C@H]43)oc2c1 [Example 190] | > 5 µM
Cc1ccc2nc(-c3c(Cl)nc(N)nc3N[C@@H]3C[C@H](CO)[C@@H](O)[C@H]3O)oc2c1 [Example 191] | 0.5 to 5 µM
Cc1ccc2oc(-c3c(Cl)nc(N)nc3N[C@@H]3C[C@H](CO)[C@H]4OC(C)(C)O[C@H]43)nc2c1 [Example 192] | > 5 µM
Cc1ccc2oc(-c3c(Cl)nc(N)nc3N[C@@H]3C[C@H](CO)[C@@H](O)[C@H]3O)nc2c1 [Example 193] | > 5 µM
CNc1ccc2sc(-c3c(Cl)nc(N)nc3N[C@@H]3C[C@H](CO)[C@@H](O)[C@H]3O)nc2c1 [Example 194] | < 0.5 µM
CCOc1ccc2nc(-c3c(Cl)nc(N)nc3N[C@@H]3C[C@H](CO)[C@H]4OC(C)(C)O[C@H]43)sc2c1 [Example 195] | < 0.5 µM
CNc1ccc2nc(-c3c(Cl)nc(N)nc3N[C@@H]3C[C@H](CO)[C@@H](O)[C@H]3O)sc2c1 [Example 196] | < 0.5 µM
CCCOc1ccc2nc(-c3c(Cl)nc(N)nc3N[C@@H]3C[C@H](CO)[C@@H](O)[C@H]3O)sc2c1 [Example 197] | < 0.5 µM
CC1(C)O[C@@H]2[C@@H](CO)C[C@@H](Nc3nc(N)nc(Cl)c3-c3nc4ccc(OCc5ccccc5)cc4s3)[C@@H]2O1 [Example 198] | > 5 µM
Nc1nc(Cl)c(-c2nc3ccc(OCc4ccccc4)cc3s2)c(N[C@@H]2C[C@H](CO)[C@@H](O)[C@H]2O)n1 [Example 199] | > 5 µM
CN(C)c1ccc2sc(-c3c(Cl)nc(N)nc3N[C@@H]3C[C@H](CO)[C@@H](O)[C@H]3O)nc2c1 [Example 200] | < 0.5 µM
COCCNc1nc(Cl)c(-c2nc3ccccc3s2)c(N[C@@H]2C[C@H](CO)[C@@H](O)[C@H]2O)n1 [Example 201] | < 0.5 µM
COCCN(C)c1nc(Cl)c(-c2nc3ccccc3s2)c(N[C@@H]2C[C@H](CO)[C@@H](O)[C@H]2O)n1 [Example 202] | 0.5 to 5 µM
CCOc1ccc2nc(-c3c(Cl)nc(N(C)C)nc3N[C@@H]3C[C@H](CO)[C@@H](O)[C@H]3O)sc2c1 [Example 203] | > 5 µM
CN(C)c1ccc2sc(-c3c(Cl)nc(N(C)C)nc3N[C@@H]3C[C@H](CO)[C@@H](O)[C@H]3O)nc2c1 [Example 204] | > 5 µM
COCCNc1nc(C)c(-c2nc3ccccc3s2)c(N[C@@H]2C[C@H](CO)[C@@H](O)[C@H]2O)n1 [Example 205] | < 0.5 µM
CCOCCNc1nc(Cl)c(-c2nc3ccccc3s2)c(N[C@@H]2C[C@H](CO)[C@@H](O)[C@H]2O)n1 [Example 206] | < 0.5 µM

Same assay, conditions: Hepatitis C virus, 72 h, HCV replicon cells, harvested on day 3, replicon RNA by real time PCR; calculated EC90 reported as range class; read-out: EC90 (μM) range

SMILES | EC90
Cc1nc(NCC2CC2)nc(N[C@@H]2C[C@H](CO)[C@H]3OC(C)(C)O[C@H]32)c1-c1cc2cc(C(F)(F)F)ncc2o1 [Example 141] | 0.5 to 5 µM
Cc1nc(NCC(F)(F)F)nc(N[C@@H]2C[C@H](CO)[C@@H](O)[C@H]2O)c1-c1cc2cc(C(F)(F)F)ncc2o1 [Example 142] | 0.5 to 5 µM
Cc1nc(NCC2CC2)nc(N[C@@H]2C[C@H](CO)[C@@H](O)[C@H]2O)c1-c1cc2cc(C(F)(F)F)ncc2o1 [Example 143] | 0.5 to 5 µM

— US8697694B2, “Substituted pyridine and pyrimidine derivatives and their use in treating viral infections” (priority 2008, dated 2014)
